Data on 24 compounds can be found in patent publication US20210355104A1, “ADENOSINE RECEPTOR BINDING COMPOUNDS” (Nikang Therapeuticsm Inc., priority 2018, published 2021).

The target in assay [1] is T1, Adenosine A2A receptor (Homo sapiens, UniProt P29274). Put plainly: Adenosine A2A receptor competitive binding assay (Tag-lite HTRF). As to conditions: Tag-lite adenosine A2A receptor ligand binding, 2 h room temperature; values separated by / are repeat determinations. Here is the method:
Adenosine A2A Receptor Competitive Binding Assay
The Tag-lite adenosine A2A receptor ligand binding assay is a homogeneous alternative to radioligand binding assay and developed by Cisbio (Bedford, Mass.). We carried out this assay following Cisbio's instructions with minor modification. Pre-transfected, fluorescent donor-labelled cells (Cisbio Cat#: C1TT1A2A, 200 testes) was stored at −80° C. and thawed right before use. Cells were washed once with 5 ml TLB and gently resuspended in 2 ml TLB. 4 μl suspended cells was dispensed into each well of white low-volume 384-well plate (Greiner Bio-One). Serial dilutions of compounds were prepared in Tag-lite buffer (TLB, Cisbio Cat #: LABMED) to a DMSO concentration of 0.6%. After adding 4 μl of compound dilutions to each well, 4 μl60 nM Adenosine A2A receptor red antagonist fluorescent ligand (Cisbio Cat #: L0058RED) was dispensed to each well. The 384-well assay plate was centrifuged briefly and incubated at room temperature for 2 h. HTRF signals were measured using CIARIOstar plate reader (BMG Labtech).

The target in assay [2] is T1, Adenosine A2A receptor. Put plainly: cAMP assay in 293A cells stably expressing the adenosine A2A receptor (CGS21680 stimulation, HTRF). The format is cell-based. On the set-up: expressed in transfected cells; host or cells: 293A cells (Invitrogen, Cat# R705-07) infected with A2A-expressing lentivirus (custom packaged by Biosettia), puromycin selected. The following applies: 293A-A2AR cells, 0.1% BSA, values separated by / are repeat determinations.

[3] abbreviates: 8 nM CGS, read-out: cAMP (nM) 0.1% BSA, 8 nM CGS.
Where [4] appears, read: 1 uM CGS, read-out: cAMP (nM) 0.1% BSA, 1 uM CGS.

Values joined by “and” are separate entries in the source; they are usually repeats but may differ in a detail not shown here. Equal entries are not always repeated.

T1 sequence (P29274 whole entry): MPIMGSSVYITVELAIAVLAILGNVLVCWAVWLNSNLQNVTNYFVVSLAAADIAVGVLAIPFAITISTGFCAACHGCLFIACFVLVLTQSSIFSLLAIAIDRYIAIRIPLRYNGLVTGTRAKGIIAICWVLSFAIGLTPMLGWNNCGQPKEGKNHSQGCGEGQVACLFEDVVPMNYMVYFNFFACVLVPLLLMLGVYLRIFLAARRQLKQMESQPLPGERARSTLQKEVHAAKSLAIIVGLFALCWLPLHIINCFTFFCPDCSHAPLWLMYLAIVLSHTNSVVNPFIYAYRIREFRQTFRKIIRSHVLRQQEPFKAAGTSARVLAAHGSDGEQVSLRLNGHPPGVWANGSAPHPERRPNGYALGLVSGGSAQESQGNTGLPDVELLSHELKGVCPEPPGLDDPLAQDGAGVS

Consider `Cc1cc(-c2c(NCc3cccc(CO[C@H]4CCOC4)n3)nc(N)nc2-c2ccccc2)cc(C(F)(F)F)n1` [Example 4, (S)-5-(2-methyl-6-(trifluoromethyl)pyridin-4-yl)-6-phenyl-N4-((6-(((tetrahydrofuran-3-yl)oxy)methyl)pyridin-2-yl)methyl)pyrimidine-2,4-diamine], for which the IC50 on Adenosine A2A receptor [1] is 139 nM; at Adenosine A2A receptor [2] (setting [3]) it was 482 nM and 288 nM; on Adenosine A2A receptor [2] (setting [4]), 23100 nM.

Take `Cc1cc(-c2c(OCc3cccc(CO[C@H]4CCOC4)n3)nc(N)nc2-c2ccccc2)cc(C(F)(F)F)n1` [Example 5, (S)-5-(2-methyl-6-(trifluoromethyl)pyridin-4-yl)-4-phenyl-6-((6-(((tetrahydrofuran-3-yl)oxy)methyl)pyridin-2-yl)methoxy)pyrimidin-2-amine]: the values for the IC50 on Adenosine A2A receptor [1] and at Adenosine A2A receptor [2] (setting [3]) were 8.97 nM and 11.5 nM, respectively.

With `Cc1cc(-c2c(OCCCN3CCN(c4ccc(F)cc4F)CC3)nc(N)nc2-c2ccccc2)cc(C(F)(F)F)n1` [Example 6, 4-(3-(4-(2,4-difluorophenyl)piperazin-1-yl)propoxy)-5-(2-methyl-6-(trifluoromethyl)pyridin-4-yl)-6-phenylpyrimidin-2-amine], the results for the IC50 at Adenosine A2A receptor [1] and on Adenosine A2A receptor [2] (setting [3]) were 74.3 nM and 183 nM, respectively.

Consider `Cc1cc(-c2c(OCc3cccc(CO[C@H]4CCOC4)n3)nc(N)nc2-c2ccc(C)o2)cc(C(F)(F)F)n1` [Example 7, (S)-5-(2-methyl-6-(trifluoromethyl)pyridin-4-yl)-4-(5-methylfuran-2-yl)-6-((6-(((tetrahydrofuran-3-yl)oxy)methyl)pyridin-2-yl)methoxy)pyrimidin-2-amine], for which the IC50 on Adenosine A2A receptor [1] worked out at 58 nM; at Adenosine A2A receptor [2] (setting [3]), 380 nM.

As for `Cc1cc(-c2c(OCCc3ccccc3)nc(N)nc2-c2ccccc2)cc(C(F)(F)F)n1` [Example 8, 5-(2-methyl-6-(trifluoromethyl)pyridin-4-yl)-4-phenethoxy-6-phenylpyrimidin-2-amine], the IC50 at Adenosine A2A receptor [1] is 10.2 nM and 18 nM; at Adenosine A2A receptor [2] (setting [3]), 7.4 nM and 7.7 nM.

`Cc1cc(-c2c(OCC(=O)N3CCOCC3)nc(N)nc2-c2ccccc2)cc(C(F)(F)F)n1` [Example 10, 2-((2-amino-5-(2-methyl-6-(trifluoromethyl)pyridin-4-yl)-6-phenylpyrimidin-4-yl)oxy)-1-morpholinoethan-1-one]: the IC50 was 25.2 nM on Adenosine A2A receptor [1]; 8.8 nM and 51.5 nM and 24.2 nM at Adenosine A2A receptor [2] (setting [3]).

In the case of `CCN(CC)C(=O)COc1nc(N)nc(-c2ccco2)c1-c1cc(C)nc(C(F)(F)F)c1` [Example 11, 2-((2-amino-6-(furan-2-yl)-5-(2-methyl-6-(trifluoromethyl)pyridin-4-yl)pyrimidin-4-yl)oxy)-N,N-diethylacetamide], the IC50 on Adenosine A2A receptor [1] amounted to 7.21 nM; at Adenosine A2A receptor [2] (setting [3]) it was 3.2 nM.

On to `CCN(CC)C(=O)COc1nc(N)nc(-c2ccc(C)o2)c1-c1cc(C)nc(C(F)(F)F)c1` [Example 12, 2-((2-amino-5-(2-methyl-6-(trifluoromethyl)pyridin-4-yl)-6-(5-methylfuran-2-yl)pyrimidin-4-yl)oxy)-N,N-diethylacetamide], for which the IC50 at Adenosine A2A receptor [1] was found to be 13.8 nM; at Adenosine A2A receptor [2] (setting [3]), 2 nM.

`CCN(CC)C(=O)[C@@H](C)Oc1nc(N)nc(-c2ccccc2)c1-c1cc(C)nc(C(F)(F)F)c1` [Example 13, (R)-2-((2-amino-5-(2-methyl-6-(trifluoromethyl)pyridin-4-yl)-6-phenylpyrimidin-4-yl)oxy)-N,N-diethylpropanamide]: the IC50 amounted to 303 nM on Adenosine A2A receptor [1] and 161 nM on Adenosine A2A receptor [2] (setting [3]).

In the case of `CCN(CC)C(=O)[C@H](C)Oc1nc(N)nc(-c2ccccc2)c1-c1cc(C)nc(C(F)(F)F)c1` [Example 14, (S)-2-((2-amino-5-(2-methyl-6-(trifluoromethyl)pyridin-4-yl)-6-phenylpyrimidin-4-yl)oxy)-N,N-diethylpropanamide], the IC50 stood at 900 nM on Adenosine A2A receptor [1] and 10000 nM at Adenosine A2A receptor [2] (setting [3]).

With `CCN(CC)C(=O)COc1nc(N)nc(-c2ccccc2)c1-c1cc(C)nc(C(F)F)c1` [Example 15, 2-((2-amino-5-(2-(difluoromethyl)-6-methylpyridin-4-yl)-6-phenylpyrimidin-4-yl)oxy)-N,N-diethylacetamide], the IC50 is 3.2 nM at Adenosine A2A receptor [1]; 0.5 nM and 2.1 nM on Adenosine A2A receptor [2] (setting [3]).

`CCN(CC)C(=O)COc1nc(N)nc(-c2ccccc2)c1-c1cc(C)nc(C(C)(F)F)c1` [Example 16, 2-((2-amino-5-(2-(1,1-difluoroethyl)-6-methylpyridin-4-yl)-6-phenylpyrimidin-4-yl)oxy)-N,N-diethylacetamide]: the IC50 at Adenosine A2A receptor [1] came to 1.47 nM; on Adenosine A2A receptor [2] (setting [3]), 6.5 nM.

Consider `CCN(CC)C(=O)COc1nc(N)nc(-c2ccccc2)c1-c1cc(C)nc(C(F)(F)CC)c1` [Example 17, 2-((2-amino-5-(2-(1,1-difluoropropyl)-6-methylpyridin-4-yl)-6-phenylpyrimidin-4-yl)oxy)-N,N-diethylacetamide], for which the IC50 at Adenosine A2A receptor [1] was 9.01 nM; on Adenosine A2A receptor [2] (setting [3]), 7.5 nM.

As to `CCN(CC)C(=O)COc1nc(N)nc(-c2ccc(F)cc2)c1-c1cc(C)nc(C(F)F)c1` [Example 28, 2-([2-amino-5-[2-(difluoromethyl)-6-methylpyridin-4-yl]-6-(4-fluorophenyl)pyrimidin-4-yl]oxy)-N,N-diethylacetamide], the IC50 at Adenosine A2A receptor [1] was 7.56 nM; at Adenosine A2A receptor [2] (setting [3]), 0.44 nM and 1.3 nM.

Consider `CCNC(=O)COc1nc(N)nc(-c2ccccc2)c1-c1cc(C)nc(C(F)(F)F)c1` [Example 29, 2-([2-amino-5-[2-methyl-6-(trifluoromethyl)pyridin-4-yl]-6-phenylpyrimidin-4-yl]oxy)-N-ethylacetamide], for which the IC50 on Adenosine A2A receptor [1] is 7.74 nM; on Adenosine A2A receptor [2] (setting [3]), 2 nM and 2.7 nM.

`CNC(=O)COc1nc(N)nc(-c2ccc(F)cc2)c1-c1cc(C)nc(C(F)F)c1` [Example 32, 2-((2-amino-5-(2-(difluoromethyl)-6-methylpyridin-4-yl)-6-(4-fluorophenyl)pyrimidin-4-yl)oxy)-N-methylacetamide]: the IC50 is 13.9 nM at Adenosine A2A receptor [1]; 6.1 nM and 6.7 nM at Adenosine A2A receptor [2] (setting [3]).

Consider `CCNC(=O)COc1nc(N)nc(-c2ccc(F)cc2)c1-c1cc(C)nc(C(F)F)c1` [Example 39, 2-((2-amino-5-(2-(difluoromethyl)-6-methylpyridin-4-yl)-6-(4-fluorophenyl)pyrimidin-4-yl)oxy)-N-ethylacetamide], for which the IC50 on Adenosine A2A receptor [1] is 7.2 nM and 6.4 nM; on Adenosine A2A receptor [2] (setting [3]), 0.42 nM and 0.57 nM and 2.2 nM.

On to `Cc1cc(-c2c(OCC(=O)NC(C)C)nc(N)nc2-c2ccc(F)cc2)cc(C(F)F)n1` [Example 41, 2-((2-amino-5-(2-(difluoromethyl)-6-methylpyridin-4-yl)-6-(4-fluorophenyl)pyrimidin-4-yl)oxy)-N-isopropylacetamide], for which the IC50 came to 6.7 nM on Adenosine A2A receptor [1] and 4.1 nM at Adenosine A2A receptor [2] (setting [3]).

On to `COCCNC(=O)COc1nc(N)nc(-c2ccc(F)cc2)c1-c1cc(C)nc(C(F)F)c1` [Example 45, 2-((2-amino-5-(2-(difluoromethyl)-6-methylpyridin-4-yl)-6-(4-fluorophenyl)pyrimidin-4-yl)oxy)-N-(2-methoxyethyl)acetamide], for which the IC50 at Adenosine A2A receptor [1] was 25.7 nM; at Adenosine A2A receptor [2] (setting [3]), 66 nM and 8.9 nM.

For the compound `Cc1cc(-c2c(OCCCS(C)(=O)=O)nc(N)nc2-c2ccc(F)cc2)cc(C(F)F)n1` [Example 46, 5-(2-(difluoromethyl)-6-methylpyridin-4-yl)-4-(4-fluorophenyl)-6-(3-(methylsulfonyl)propoxy)pyrimidin-2-amine], the IC50 was 5.7 nM and 5.9 nM on Adenosine A2A receptor [1]; 0.45 nM and 0.84 nM and 2.1 nM at Adenosine A2A receptor [2] (setting [3]); 1780 nM and 714 nM on Adenosine A2A receptor [2] (setting [4]).

`COCCOc1nc(N)nc(-c2ccc(F)cc2)c1-c1cc(C)nc(C(F)F)c1` [Example 48, 5-(2-(difluoromethyl)-6-methylpyridin-4-yl)-4-(4-fluorophenyl)-6-(2-methoxyethoxy)pyrimidin-2-amine]: the IC50 is 3.7 nM at Adenosine A2A receptor [1]; 0.72 nM and 0.18 nM on Adenosine A2A receptor [2] (setting [3]).

Turning to `COC(=O)N1CCN(CCOc2nc(N)nc(-c3ccc(F)cc3)c2-c2cc(C)nc(C(F)F)c2)CC1` [Example 51, methyl 4-(2-((2-amino-5-(2-(difluoromethyl)-6-methylpyridin-4-yl)-6-(4-fluorophenyl)pyrimidin-4-yl)oxy)ethyl)piperazine-1-carboxylate], the IC50 on Adenosine A2A receptor [1] is 10 nM; on Adenosine A2A receptor [2] (setting [3]) it was 3.9 nM.

On to `Cc1cc(-c2c(OCCN3CCN(C4COC4)CC3)nc(N)nc2-c2ccc(F)cc2)cc(C(F)F)n1` [Example 52, 5-(2-(difluoromethyl)-6-methylpyridin-4-yl)-4-(4-fluorophenyl)-6-(2-(4-(oxetan-3-yl)piperazin-1-yl)ethoxy)pyrimidin-2-amine], for which the IC50 at Adenosine A2A receptor [1] amounted to 120 nM; on Adenosine A2A receptor [2] (setting [3]) it was 532 nM.

For `COCCOc1ccc(N2CCN(CCOc3nc(N)nc(-c4ccc(F)cc4)c3-c3cc(C)nc(C(F)F)c3)CC2)cc1` [Example 53, 5-(2-Difluoromethyl-6-methyl-pyridin-4-yl)-4-(4-fluoro-phenyl)-6-(2-{4-[4-(2-methoxy-ethoxy)-phenyl]-piperazin-1-yl}-ethoxy)-pyrimidin-2-ylamine], the results for the IC50 at Adenosine A2A receptor [1] and at Adenosine A2A receptor [2] (setting [3]) were 13 nM and 0.67 nM, respectively.
